Laboratory results published in ChEMBL document CHEMBL5725609, “1H-pyrazolo[3,4-b]pyridines and therapeutic uses thereof” (2018).
Values joined by “and” are separate entries in the source; they are usually repeats but may differ in a detail not shown here. Identical values can stand only once.

Test: Wnt APC Inhibition Assay: Reporter cell lines can be generated by stably transducing cells of cancer cell lines (e.g., colon cancer) with a lentiviral construct that include a wnt-responsive promoter driving expression of the firefly luciferase gene.Lentiviral constructs can be made in which the SP5 promoter, a promoter having eight TCF/LEF binding sites derived from the SP5 promoter, is linked upstream of the firefly luciferase gene. The lentiviral constructs can also include a hygromycin resistance gene as a selectable marker. The SP5 promoter construct can be used to transduce SW480 cells, a colon cancer cell line having a mutated APC gene that generates a truncated APC protein, leading to de-regulated accumulation of β-catenin. […] Compounds from a small molecule compound library can then be added to the wells in half-log dilutions using a ten micromolar top concentration. A series of control wells for each cell type receive only buffer and compound solvent. Twenty-four to forty hours after the addition of compound, reporter activity for luciferase can be assayed, for example, by addition of the BrightGlo luminescence reagent (Promega) and the Victor3 plate reader (Perkin Elmer). Readings can be normalized to DMSO only treated cells, and normalized activities can then be used in the IC50 calculations.

CC(C)(C)C(=O)Nc1cncc(-c2cnc3[nH]nc(-c4nc5c(-c6cccc(F)c6)cncc5[nH]4)c3c2)c1
IC50: 38 nM and 6 nM
